Changes are numbered by the printed parent chain.
What was measured:
Assay type in all cases: cell-based
[1] = molecular target: T1, α-Gal A mutant form S238G (Homo sapiens, UniProt P06280, S238G); test: α-Gal A activity in lysates of transfected HEK-293 cells, S238G
T1 construct: expressed in transfected cells; host or cells: HEK-293
T1 sequence (P06280 32-429 S238G): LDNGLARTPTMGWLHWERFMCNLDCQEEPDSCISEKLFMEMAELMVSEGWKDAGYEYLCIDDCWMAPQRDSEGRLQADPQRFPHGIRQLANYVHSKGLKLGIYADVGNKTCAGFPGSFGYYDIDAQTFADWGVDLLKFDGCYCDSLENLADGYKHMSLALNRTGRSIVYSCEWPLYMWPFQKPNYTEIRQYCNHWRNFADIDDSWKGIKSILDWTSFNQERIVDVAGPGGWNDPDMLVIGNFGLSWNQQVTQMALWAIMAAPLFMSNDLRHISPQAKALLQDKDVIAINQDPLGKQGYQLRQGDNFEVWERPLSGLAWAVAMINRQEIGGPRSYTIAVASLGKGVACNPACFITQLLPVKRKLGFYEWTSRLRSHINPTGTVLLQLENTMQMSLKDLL
Protocol: (§1) Baseline and 10 μM migalastat α-Gal A activity: Differences in the α-Gal A activity between lysates incubated in the absence and presence of 10 μM migalastat were determined using a one-tailed, Mann Whitney U test; an increase at 10 μM migalastat with a p<0.05 was considered significant.
(§2) 10 μM migalastat α-Gal A activity (% WT)=(α-Gal A activity in mutant transfected cell lysates incubated with 10 μM migalastat÷α-Gal A activity in wild-type transfected cell lysates without migalastat)*100.
(§3) Absolute increase (% WT)=is the 10 μM migalastat α-Gal A activity (% WT) minus the baseline α-Gal A activity (% WT).
(§4) Relative increase is the 10 μM migalastat α-Gal A activity in mutant transfected cell lysates÷baseline α-Gal A activity in mutant transfected cell lysates incubated without migalastat.

[2] = molecular target: T2, α-Gal A mutant form R112L (Homo sapiens, UniProt P06280, R112L); test: α-Gal A activity in lysates of transfected HEK-293 cells, R112L
T2 construct: expressed in transfected cells; host or cells: HEK-293
T2 sequence (P06280 32-429 R112L): T1 sequence (P06280 32-429 S238G) with R81L, G207S
Protocol: as §1, §2, §3, §4

[3] = molecular target: T3, α-Gal A mutant form G35A (Homo sapiens, UniProt P06280, G35A); test: α-Gal A activity in lysates of transfected HEK-293 cells, G35A
T3 construct: expressed in transfected cells; host or cells: HEK-293
T3 sequence (P06280 32-429 G35A): T1 sequence (P06280 32-429 S238G) with G4A, G207S
Protocol: as §1, §2, §3, §4

[4] = molecular target: T4, α-Gal A mutant form L189F (Homo sapiens, UniProt P06280, L189F); test: α-Gal A activity in lysates of transfected HEK-293 cells, L189F
T4 construct: expressed in transfected cells; host or cells: HEK-293
T4 sequence (P06280 32-429 L189F): T1 sequence (P06280 32-429 S238G) with L158F, G207S
Protocol: as §1, §2, §3, §4

[5] = molecular target: T5, α-Gal A mutant form P259Q (Homo sapiens, UniProt P06280, P259Q); test: α-Gal A activity in lysates of transfected HEK-293 cells, P259Q
T5 construct: expressed in transfected cells; host or cells: HEK-293
T5 sequence (P06280 32-429 P259Q): T1 sequence (P06280 32-429 S238G) with G207S, P228Q
Protocol: as §1, §2, §3, §4

[6] = 10 μM migalastat minus baseline
[7] = 10 μM migalastat ÷ baseline activity
[8] = HEK-293 lysates, 10 μM migalastat, 5 days, mean ± SEM

Absolute increase (% WT) [1, 6]: 67.7 % WT | Relative increase [1, 7]: 4.26 | 10 μM migalastat α-Gal A activity [1, 8]: 25106 ± 1611 nmol/mg/h | 10 μM migalastat α-Gal A activity (% WT) [1, 8]: 86.4 ± 7.2 % WT | Absolute increase (% WT) ([2]; 10 μM migalastat minus baseline (baseline BLD)): 7.5 % WT | 10 μM migalastat α-Gal A activity (% WT) [2, 8]: 7.5 ± 1.1 % WT | 10 μM migalastat α-Gal A activity ([2]; HEK-293 lysates, 10 μM migalastat, 5 days, mean ± SEM, baseline BLD): 2364 ± 296 nmol/mg/h | Absolute increase (% WT) [3, 6]: 31.0 % WT | Relative increase [3, 7]: 1.61 | 10 nM migalastat α-Gal A activity ([3]; HEK-293 lysates, 10 nM migalastat as printed, 5 days, mean ± SEM): 31694 ± 1949 nmol/mg/h | 10 μM migalastat α-Gal A activity (% WT) [3, 8]: 82.1 ±5.6 % WT | Absolute increase (% WT) [4, 6]: 15.3 % WT | Relative increase [4, 7]: 1.22 | 10 μM migalastat α-Gal A activity [4, 8]: 27388 ± 1605 nmol/mg/h | 10 μM migalastat α-Gal A activity (% WT) [4, 8]: 84.6 ± 3.8 % WT | Absolute increase (% WT) [5, 6]: 36.1 % WT | Relative increase [5, 7]: 1.90 | 10 μM migalastat α-Gal A activity [5, 8]: 25935 ± 2020 nmol/mg/h | 10 μM migalastat α-Gal A activity (% WT) [5, 8]: 73.6 ± 5.0 % WT
SMILES: OC[C@H]1NC[C@H](O)[C@@H](O)[C@H]1O [migalastat, (2R,3S,4R,5S)-2-(hydroxymethyl) piperdine-3,4,5-triol]

— patent publication US12594268B2, “Methods of treating Fabry disease in patients having a mutation in the GLA gene” (Amicus Therapeutics, Inc., priority 2018, dated 2026)
